From ChEMBL document CHEMBL6071156 (Eur J Med Chem, 2024)
Calls of active or inactive are those of the source. The calls are words filed in the database; no cut-off is given here.

Columns and labels:
Cytochrome P450 2D6 = Cytochrome P450 2D6 (Homo sapiens, UniProt P10635); experiment: Inhibition of CYP2D6 (unknown origin); format: ADME
Cav1.2 = experiment: Antagonist activity at hCav1.2 expressed in HEK293 cells by Electrophysiology; format: toxicity, cell-based; conditions: human, HEK293 cells expressing hCav1.2
[1] = C0 in C57BL/6 mouse plasma at 2.5 mg/kg, iv measured upto 24 hrs post dosing by LC-MS/MS; format: ADME, organism-based; conditions: in vivo
[2] = Toxicity in C57BL/6 mouse model assessed as effect on DBILI level at 300 mg/kg/day, ip measured after 6 days post infection (reference value: 0.25 to 0.33); format: organism-based; conditions: in vivo, 144 h, time 6 day
[3] = Volume of distribution at steady state in C57BL/6 mouse plasma at 2.5 mg/kg, iv measured upto 24 hrs post dosing by LC-MS/MS; format: ADME, organism-based; conditions: in vivo
Cytochrome P450 2B6 = target: T1, Cytochrome P450 2B6 (Homo sapiens, UniProt P20813); experiment: Inhibition of CYP2B6 (unknown origin); format: ADME
T1 sequence (P20813 whole entry): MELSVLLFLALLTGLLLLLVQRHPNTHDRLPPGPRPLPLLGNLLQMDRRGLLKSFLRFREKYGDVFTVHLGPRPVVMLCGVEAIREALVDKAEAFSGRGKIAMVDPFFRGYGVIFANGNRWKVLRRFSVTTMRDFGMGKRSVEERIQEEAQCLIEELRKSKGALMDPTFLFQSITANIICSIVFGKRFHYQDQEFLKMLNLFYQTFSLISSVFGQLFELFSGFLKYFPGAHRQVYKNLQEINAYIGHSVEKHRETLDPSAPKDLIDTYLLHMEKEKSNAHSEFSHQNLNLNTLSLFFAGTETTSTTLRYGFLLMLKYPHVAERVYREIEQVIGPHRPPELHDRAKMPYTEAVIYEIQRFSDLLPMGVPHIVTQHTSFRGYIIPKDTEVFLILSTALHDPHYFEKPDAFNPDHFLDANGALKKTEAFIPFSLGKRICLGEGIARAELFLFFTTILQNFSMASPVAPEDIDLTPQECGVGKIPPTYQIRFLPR

Cytochrome P450 2C19 = Cytochrome P450 2C19 (Homo sapiens, UniProt P33261); experiment: Inhibition of CYP2C19 (unknown origin); format: ADME
Sequence of Cytochrome P450 2C19 (P33261 whole entry): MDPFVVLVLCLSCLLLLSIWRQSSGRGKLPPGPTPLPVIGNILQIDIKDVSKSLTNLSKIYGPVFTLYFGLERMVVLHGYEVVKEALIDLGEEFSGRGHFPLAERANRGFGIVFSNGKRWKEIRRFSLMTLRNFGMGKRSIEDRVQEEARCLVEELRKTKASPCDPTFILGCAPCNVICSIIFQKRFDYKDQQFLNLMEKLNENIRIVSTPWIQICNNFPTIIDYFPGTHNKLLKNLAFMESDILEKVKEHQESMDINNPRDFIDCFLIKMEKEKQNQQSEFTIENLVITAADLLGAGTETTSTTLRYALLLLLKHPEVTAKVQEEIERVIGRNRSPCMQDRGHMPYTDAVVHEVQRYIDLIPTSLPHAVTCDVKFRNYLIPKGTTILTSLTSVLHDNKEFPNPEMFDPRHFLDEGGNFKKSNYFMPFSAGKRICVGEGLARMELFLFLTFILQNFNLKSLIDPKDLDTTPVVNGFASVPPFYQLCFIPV

Chikungunya virus [4] = experiment: Antiviral activity against CHIKV S27 in green monkey Vero 76 cells assessed as reduction in virus-induced cytopathic effect; format: functional, organism-based; conditions: S27, Vero 76
[5] = Volume in the terminal state in C57BL/6 mouse plasma at 2.5 mg/kg, iv measured upto 24 hrs post dosing by LC-MS/MS; format: ADME, organism-based; conditions: in vivo
[6] = Metabolic stability in human liver S9 fraction assessed as half life by HPLC-MS/MS analysis; format: ADME, subcellular
Chikungunya virus [7] = format: functional, organism-based; conditions: dose 300.0 mg/kg/day, time 5-6 day
[8] = Toxicity in C57BL/6 mouse model assessed as effect on TBILI level at 300 mg/kg/day, ip measured after 6 days post infection (reference value: 0.30 to 0.43); format: organism-based; conditions: in vivo, 144 h, time 6 day
[9] = Toxicity in C57BL/6 mouse model assessed as effect on ALT level at 300 mg/kg/day, ip measured after 6 days post infection (reference value: 29 to 33); format: organism-based; conditions: in vivo, 144 h, time 6 day
[10] = Toxicity in Sham-infected C57BL/6 mouse model assessed as footpad swelling at 300 mg/kg/day, ip measured after 6 days post infection (reference value: -4.6+/-5.5); format: organism-based; conditions: in vivo, 144 h, time 6 day

Sequence of Cytochrome P450 2D6 (P10635 whole entry): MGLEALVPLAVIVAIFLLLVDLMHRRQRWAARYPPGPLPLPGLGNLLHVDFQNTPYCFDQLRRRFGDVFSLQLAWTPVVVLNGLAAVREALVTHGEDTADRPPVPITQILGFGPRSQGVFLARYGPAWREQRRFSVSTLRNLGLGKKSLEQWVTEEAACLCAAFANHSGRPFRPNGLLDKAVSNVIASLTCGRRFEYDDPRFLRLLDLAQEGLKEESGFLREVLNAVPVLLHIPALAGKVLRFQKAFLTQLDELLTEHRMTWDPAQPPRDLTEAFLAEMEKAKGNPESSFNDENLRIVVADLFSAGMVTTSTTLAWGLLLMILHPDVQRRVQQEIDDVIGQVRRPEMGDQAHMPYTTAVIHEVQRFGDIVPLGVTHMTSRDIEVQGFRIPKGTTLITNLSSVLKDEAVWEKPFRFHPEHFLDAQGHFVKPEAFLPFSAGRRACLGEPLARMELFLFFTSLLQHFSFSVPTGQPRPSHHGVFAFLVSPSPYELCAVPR

## CC1CCNc2c(C(=O)NC/C=C/S(C)(=O)=O)cccc21 (centres undefined)
Cytochrome P450 2D6
  IC50: > 100 µM
Cav1.2
  IC50: > 100 µM
[1]
  C0: 0.9665 µg/mL
[2]
  Activity: 0.14 mg/dL
[3]
  Vdss: 1.9 L/kg
Cytochrome P450 2B6
  IC50: > 100 µM
Cytochrome P450 2C19
  IC50: > 100 µM
Chikungunya virus [4]
  EC50: 0.39 µM
[5]
  Vz: 4.5 L/kg
[6]
  t1/2: 1.73 h
Chikungunya virus [7]
  Activity: Active
[8]
  Activity: 0.34 mg/dL
[9]
  Activity: 28 U/L
[10]
  Activity: -1%
